In patent US9957264B2 (Merck Sharp & Dohme Corp., priority 2013, dated 2018):

Columns and labels:
[1] = biological target: JAK1 (recombinant purified GST-tagged catalytic domain) (Homo sapiens (Human), UniProt P23458); assay: Jak Biochemical HTRF Assay (JAK1); details: [ATP] 31.8 μM
Procedure, shortened: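 GST-tagged human catalytic domains of JAK1 or JAK2 phosphorylated a biotinylated peptide substrate for 120 min at room temperature after ATP addition. Reaction quenched with EDTA stop buffer containing streptavidin-Dylight 650 and Eu-pY20 antibody; HTRF 665/615 nm ratio normalized to untreated controls, IC50 from 4-parameter fit.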

[2] = biological target: JAK2 (recombinant purified GST-tagged catalytic domain) (Homo sapiens (Human), UniProt O60674); assay: Jak Biochemical HTRF Assay (JAK2); details: [ATP] 8.5 μM
Sequence of JAK2 (recombinant purified GST-tagged catalytic domain) (O60674 849-1124): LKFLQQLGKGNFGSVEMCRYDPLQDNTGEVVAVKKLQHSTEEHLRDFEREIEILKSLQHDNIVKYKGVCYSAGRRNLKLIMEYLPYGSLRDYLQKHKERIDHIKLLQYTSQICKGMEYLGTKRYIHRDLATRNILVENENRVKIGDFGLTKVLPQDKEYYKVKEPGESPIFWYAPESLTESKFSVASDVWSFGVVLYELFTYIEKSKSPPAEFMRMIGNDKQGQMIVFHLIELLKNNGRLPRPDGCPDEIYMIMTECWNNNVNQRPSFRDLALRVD

Sequence of JAK1 (recombinant purified GST-tagged catalytic domain) (P23458 875-1153): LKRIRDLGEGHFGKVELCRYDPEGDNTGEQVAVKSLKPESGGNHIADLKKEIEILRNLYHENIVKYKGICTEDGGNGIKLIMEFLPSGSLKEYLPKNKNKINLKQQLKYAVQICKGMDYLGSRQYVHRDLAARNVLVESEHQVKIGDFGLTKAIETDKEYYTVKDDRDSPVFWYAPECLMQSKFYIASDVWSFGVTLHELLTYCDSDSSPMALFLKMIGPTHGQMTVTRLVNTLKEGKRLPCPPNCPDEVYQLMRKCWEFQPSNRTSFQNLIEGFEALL

Row | SMILES | IC50 [1] [nM] | IC50 [2] [nM]
1 | CC(C)(C)S(=O)(=O)c1ccc(Nc2nn(C3(CC#N)CCOCC3)c3cc[nH]c(=O)c23)cc1 [Example 5-252, 2-(4-(3-((4-(tert-butylsulfonyl)phenyl)amino)-4-oxo-4,5-dihydro-1H-pyrazolo[4,3-c]pyridin-1-yl)tetrahydro-2H-pyran-4-yl)acetonitrile] | 0.34 | 0.84
2 | CN(C(C)(C)C)S(=O)(=O)c1ccc(Nc2nn(C3(CC#N)CCOCC3)c3cc[nH]c(=O)c23)cc1 [Example 5-253, N-(tert-butyl)-4-((1-(4-(cyanomethyl)tetrahydro-2H-pyran-4-yl)-4-oxo-4,5-dihydro-1H-pyrazolo[4,3-c]pyridin-3-yl)amino)-N-methylbenzenesulfonamide] | 0.72 | 1.4
3 | CN(C)S(=O)(=O)c1ccc(Nc2nn(C3(CC#N)CCOCC3)c3cc[nH]c(=O)c23)cc1 [Example 5-254, 4-((1-(4-(cyanomethyl)tetrahydro-2H-pyran-4-yl)-4-oxo-4,5-dihydro-1H-pyrazolo[4,3-c]pyridin-3-yl)amino)-N,N-dimethylbenzenesulfonamide] | 0.66 | 1.4
4 | CC(C)NC(C)(C)c1ccc(Nc2nn([C@@]3(CC#N)CCN(C(=O)OC(C)(C)C)C[C@H]3F)c3cc[nH]c(=O)c23)cc1 [Example 5-273, tert-butyl (3R,4R)-4-(cyanomethyl)-3-fluoro-4-{3-[(4-{1-methyl-1-[(1-methylethyl)amino]ethyl}phenyl)amino]-4-oxo-4,5-dihydro-1H-pyrazolo[4,3-c]pyridin-1-yl}piperidine-1-carboxylate] | 0.17 | 0.14
5 | CC(C)NC(C)(C)c1ccc(Nc2nn([C@]3(CC#N)CC[C@@H](C(=O)OC(C)(C)C)OC3)c3cc[nH]c(=O)c23)cc1 [Example 5-274, (2S,5S)-tert-butyl 5-(cyanomethyl)-5-(3-((4-(2-(isopropylamino)propan-2-yl)phenyl)amino)-4-oxo-4,5-dihydro-1H-pyrazolo[4,3-c]pyridin-1-yl)tetrahydro-2H-pyran-2-carboxylate] | 0.36 | 0.26
6 | COC(c1ccc(Nc2nn([C@@]3(CC#N)CCN(C(=O)OC(C)(C)C)C[C@H]3F)c3cc[nH]c(=O)c23)cc1)C(F)(F)F (stereo partly drawn) [Example 5-275] | 0.17 | 0.09
7 | CC(C)NC(C)(C)c1ccc(Nc2nn(C3(CC#N)CCN(C(=O)OC(C)(C)C)CC3)c3cc[nH]c(=O)c23)cc1 [Example 5-276, tert-butyl 4-(cyanomethyl)-4-{3-[(4-{1-methyl-1-[(1-methylethyl)amino]ethyl}phenyl)amino]-4-oxo-4,5-dihydro-1H-pyrazolo[4,3-c]pyridin-1-yl}piperidine-1-carboxylate] | 0.57 | 0.4
8 | Cc1cc(Nc2nn([C@@]3(CC#N)CCN(C(=O)OC(C)(C)C)C[C@H]3F)c3cc[nH]c(=O)c23)ccc1C(=O)N1CCSCC1 [Example 5-279, (3R,4R)-tert-butyl 4-(cyanomethyl)-3-fluoro-4-(3-((3-methyl-4-(thiomorpholine-4-carbonyl)phenyl)amino)-4-oxo-4,5-dihydro-1H-pyrazolo[4,3-c]pyridin-1-yl)piperidine-1-carboxylate] | 0.18 | 0.12
9 | CC(C)(C)OC(=O)N1CCC(CC#N)(n2nc(Nc3ccc(S(=O)(=O)NC4CCCCC4)cc3)c3c(=O)[nH]ccc32)CC1 [Example 5-292, tert-butyl 4-(cyanomethyl)-4-(3-((4-(N-cyclohexylsulfamoyl)phenyl)amino)-4-oxo-4,5-dihydro-1H-pyrazolo[4,3-c]pyridin-1-yl)piperidine-1-carboxylate] | 1.2 | 1.92
10 | CC(C)(C)OC(=O)N1CCC(CC#N)(n2nc(Nc3ccc(S(=O)(=O)N4CCCCC4)cc3)c3c(=O)[nH]ccc32)CC1 [Example 5-293, tert-butyl 4-(cyanomethyl)-4-(4-oxo-3-((4-(piperidin-1-ylsulfonyl)phenyl)amino)-4,5-dihydro-1H-pyrazolo[4,3-c]pyridin-1-yl)piperidine-1-carboxylate] | 0.43 | 0.68
11 | CC(C)(C)OC(=O)N1CCC(CC#N)(n2nc(Nc3ccc(S(=O)(=O)N4CCOCC4)cc3)c3c(=O)[nH]ccc32)CC1 [Example 5-294, tert-butyl 4-(cyanomethyl)-4-(3-((4-(morpholinosulfonyl)phenyl)amino)-4-oxo-4,5-dihydro-1H-pyrazolo[4,3-c]pyridin-1-yl)piperidine-1-carboxylate] | 0.22 | 0.37
12 | CC(C)NS(=O)(=O)c1ccc(Nc2nn(C3(CC#N)CCN(C(=O)OC(C)(C)C)CC3)c3cc[nH]c(=O)c23)cc1F [Example 5-295, tert-butyl 4-(cyanomethyl)-4-(3-((3-fluoro-4-(N-isopropylsulfamoyl)phenyl)amino)-4-oxo-4,5-dihydro-1H-pyrazolo[4,3-c]pyridin-1-yl)piperidine-1-carboxylate] | 0.42 | 0.6
13 | CC(C)(C)OC(=O)N1CCC(CC#N)(n2nc(Nc3ccc(S(=O)(=O)NCC4CC4)c(F)c3)c3c(=O)[nH]ccc32)CC1 [Example 5-296, tert-butyl 4-(cyanomethyl)-4-(3-((4-(N-(cyclopropylmethyl)sulfamoyl)-3-fluorophenyl)amino)-4-oxo-4,5-dihydro-1H-pyrazolo[4,3-c]pyridin-1-yl)piperidine-1-carboxylate] | 0.65 | 0.91
14 | N#CCC1(n2nc(Nc3ccc(F)cc3)c3c(=O)[nH]ccc32)CCNCC1 [Example 6, (4-{3-[(4-fluorophenyl)amino]-4-oxo-4,5-dihydro-1H-pyrazolo[4,3-c]pyridin-1-yl}piperidin-4-yl)acetonitrile] | 421 | > 1500
15 | N#CCC1(n2nc(Nc3ccc(F)cc3)c3c(=O)[nH]ccc32)CCN(C(=O)C2CC2)CC1 [Example 7, [1-(cyclopropylcarbonyl)-4-{3-[(4-fluorophenyl)amino]-4-oxo-4,5-dihydro-1H-pyrazolo[4,3-c]pyridin-1-yl}piperidin-4-yl]acetonitrile] | 0.09 | 1.9
16 | CN(C)S(=O)(=O)c1ccc(Nc2nn(C3(CC#N)CCN(Cc4ccccc4)CC3)c3cc[nH]c(=O)c23)cc1 [Example 8-1, 4-({1-[1-benzyl-4-(cyanomethyl)piperidin-4-yl]-4-oxo-4,5-dihydro-1H-pyrazolo[4,3-c]pyridin-3-yl}amino)-N,N-dimethylbenzenesulfonamide] | 0.17 | 0.38
17 | CN(C)S(=O)(=O)c1ccc(Nc2nn(C3(CC#N)CCN(Cc4ccc(C(F)(F)F)cc4)CC3)c3cc[nH]c(=O)c23)cc1 [Example 8-3, 4-[(1-{4-(cyanomethyl)-1-[4-(trifluoromethyl)benzyl]piperidin-4-yl}-4-oxo-4,5-dihydro-1H-pyrazolo[4,3-c]pyridin-3-yl)amino]-N,N-dimethylbenzenesulfonamide] | 2.32 | 8.62
18 | CC(C)c1ccc(CN2CCC(CC#N)(n3nc(Nc4ccc(S(=O)(=O)N(C)C)cc4)c4c(=O)[nH]ccc43)CC2)cc1 [Example 8-4, 4-[(1-{4-(cyanomethyl)-1[4-(1-methylethyl)benzyl]piperidin-4-yl}-4-oxo-4,5-dihydro-1H-pyrazolo[4,3-c]pyridin-3-yl)amino]-N,N-dimethylbenzenesulfonamide] | 6.9 | 33.1
19 | CC(C)Oc1ccc(CN2CCC(CC#N)(n3nc(Nc4ccc(S(=O)(=O)N(C)C)cc4)c4c(=O)[nH]ccc43)CC2)cc1 [Example 8-6, 4-[(1-{4-(cyanomethyl)-1-[4-(1methylethoxy)benzyl]piperidin-4-yl}-4-oxo-4,5-dihydro-1H-pyrazolo[4,3-c]pyridin-3-yl)amino]-N,N-dimethylbenzenesulfonamide] | 1.94 | 12.4
20 | CN(C)S(=O)(=O)c1ccc(Nc2nn(C3(CC#N)CCN(Cc4ccc(F)cc4)CC3)c3cc[nH]c(=O)c23)cc1 [Example 8-7, 4-({1-[4-(cyanomethyl)-1-(4-fluorobenzyl)piperidin-4-yl]-4-oxo-4,5-dihydro-1H-pyrazolo[4,3-c]pyridin-3-yl}amino)-N,N-dimethylbenzenesulfonamide] | 0.21 | 0.63
21 | CN(C)S(=O)(=O)c1ccc(Nc2nn(C3(CC#N)CCN(Cc4cccc(F)c4)CC3)c3cc[nH]c(=O)c23)cc1 [Example 8-8, 4-({1-[4-(cyanomethyl)-1-(3-fluorobenzyl)piperidin-4-yl]-4-oxo-4,5-dihydro-1H-pyrazolo[4,3-c]pyridin-3-yl}amino)-N,N-dimethylbenzenesulfonamide] | 0.29 | 0.52
22 | CN(C)S(=O)(=O)c1ccc(Nc2nn(C3(CC#N)CCN(Cc4ccccc4F)CC3)c3cc[nH]c(=O)c23)cc1 [Example 8-9, 4-({1-[4-(cyanomethyl)-1-(2-fluorobenzyl)piperidin-4-yl]-4-oxo-4,5-dihydro-1H-pyrazolo[4,3-c]pyridin-3-yl}amino)-N,N-dimethylbenzenesulfonamide] | 0.19 | 0.28
23 | CN(C)S(=O)(=O)c1ccc(Nc2nn(C3(CC#N)CCN(Cc4c(F)cccc4F)CC3)c3cc[nH]c(=O)c23)cc1 [Example 8-10, 4-({1-[4-(cyanomethyl)-1-(2,6-difluorobenzyl)piperidin-4-yl]-4-oxo-4,5-dihydro-1H-pyrazolo[4,3-c]pyridin-3-yl}amino)-N,N-dimethylbenzenesulfonamide] | 0.19 | 0.29
24 | CN(C)S(=O)(=O)c1ccc(Nc2nn(C3(CC#N)CCN(Cc4c(F)ccc(F)c4F)CC3)c3cc[nH]c(=O)c23)cc1 [Example 8-11, 4-({1-[4-(cyanomethyl)-1-(2,3,6-trifluorobenzyl)piperidin-4-yl]-4-oxo-4,5-dihydro-1H-pyrazolo[4,3-c]pyridin-3-yl}amino)-N,N-dimethylbenzenesulfonamide] | 0.24 | 0.28
